Entries after “also recorded” stand apart in the source; their conditions may differ.
Columns and labels:
gastric ulceration = experiment: NSAID-induced gastric ulceration in rats (surface area of ulceration); type: in vivo, rat (male Sprague-Dawley); details: 4 h
Experimental: Male Sprague-Dawley rats (Charles River, Wilmington, Mass.) weighing 300-325 g were housed individually in wire bottomed cages to prevent ingestion of hair and feces. […] Piroxicam or aspirin and other NSAIDS were suspended in a vehicle of 1% carboxymethylcellulose, 0.1% Tween 80 and 0.15 M HCl, and administered in a volume of 1 ml on the morning of study by oral gavage using an 18 gauge curved blunt needle (Popper and Sons, New Hyde Park, N.Y.). One ml of vehicle alone was administered for control experiments. HCl was added to the vehicle to insure an acid environment in the stomach in all studies. […] Four hours after the administration of NSAID or vehicle, rats were euthanized with sodium pentobarbital (100 mg/kg IP), and the surface area of ulceration per stomach was quantitated using morphometric techniques. Stomachs were removed, the lumen was exposed by an incision along the radius of greater curvature, and the stomach was washed in phosphate buffered saline. The luminal surface was laid out on a flat surface with gross folds removed by gentle distension. The percentage of surface involved with submucosal hemorrhage was then determined by point counting, as described by Weibel, E. R. Stereological Methods: Practical Methods for Biological Morphometry. […] This was done by tabulation of the percentage of points over ulcerations using a point counting eyepiece graticle (16×16 points in a square format). At the 12X magnification used on the Wild dissecting microscope (Wild-Heerbrugg, Basel, Switzerland), the graticle covered a 1 cm^2 area of the surface. Four to five non-overlapping sampling sites were taken to fully cover the exposed surface. To determine the total luminal surface area, the outline of the outer boundary of the stomach was traced using a transparent acetate sheet, and the area was determined from planimetry. The surface area of ulcerated regions per stomach was then determined by multiplying the surface density of ulceration regions by the luminal surface area of the stomach.
Differences in total luminal surface area in cm^2, surface area of ulcerated regions per stomach and biochemical analyses between each treatment intervention and its corresponding untreated control group are compared using the Mann-Whitney U Test, Dixon, W. J., Massey, F. J., Jr. Introduction to statistical methods, 4th edition. […] In vitro studies are compared using the Student's unpaired T-test, Dixon, W. J., Massey, F. J., Jr. Introduction to statistical methods, 4th edition. […] Values are expressed as mean±SEM. Significance is assumed when P<0.05.
Phenyl N-tert-butyl nitrone is obtained from Aldrich Chemicals, Milwaukee, Wis. All other chemicals and pharmaceuticals are from Sigma Chemical.

[1] = tested on: microsomal lipid peroxidation; experiment: microsomal lipid peroxidation (liver microsomes); type: biochemical; details: 200 μM piroxicam, rat liver microsomes
Experimental: Studies of Microsomal Lipid Peroxidation. […] Rats are euthanized by CO2 narcosis. The livers are excised rapidly into cold isolation medium containing 0.1M sodium phosphate and 2 mM EDTA, pH 7.4. The tissue is minced and homogenized in 3 ml isolation medium per gram of tissue using a Potter-Elvehjam homogenizer. The homogenate is centrifuged at 17,800 g for 20 min., and the pellet discarded. The supernatant is recentrifuged at 100,000 g for 60 min. The resulting pellet is resuspended in isolation buffer and recentrifuged at 100,000 g for 40 min. The final pellet is resuspended in storage buffer containing 100 mM potassium phosphate, 20% glycerol, 1 mM EDTA, 1 mM DTT and 20 μM butylated hydroxytoluene, pH 7.25. This suspension is frozen under liquid nitrogen and stored at -70° CL until use. Microsomal protein is determined by a modification of the Lowry method of Anderson, M. E. Methods Enzymol 113:548-555 (1985). […] Lipid peroxidation in the 1 ml reaction mixture is measured by mixing with 2 ml TBA reagent and assaying for thiobarbituric acid reactivity by the method of Buege and Aust. Values are expressed as the increase in absorbance at 532 nm ([MUT]) per mg microsomal protein and represent the mean of three replicates.

[2] = tested on: gastric mucosal glutathione; experiment: glutathione in gastric mucosa; type: in vivo, rat; details: 4 h after piroxicam
Experimental: MEASUREMENT OF GLUTATHIONE IN GASTRIC MUCOSA.
Gastric mucosal glutathione is measured in piroxicam-and vehicle-treated rat stomachs. Four hours after piroxicam or vehicle, stomachs are opened, washed with ice cold saline, and spread along a flat surface with lumens exposed. The gastric mucosa is then removed by scraping with a surgical blade. The mucosa is homogenized on ice in 1 ml of 1.15% KCl. Two aliquots of 250 μl are snap frozen in liquid nitrogen and stored at -70° C. for later determination of total glutathione by the method of Anderson, M. E. Methods Enzymol 113:548-555 (1985) and protein by a modification of the Lowry method, described by Bennett, J. P. Techniques Lipid Membrane Biochem. B408:1-22 (1982), using bovine serum albumin as a standard. Results are expressed as nmole/mg protein. To measure oxidized glutathione (GSSG), the remaining 500 μl is mixed with an equal volume of N-ethylmaleimide (NEM) in water (10 mM final concentration of NEM), snap frozen and stored at -70° C. After thawing for analysis, this mixture is passed over a C-18 Sep-Pak column (Waters Associates, Milford, Mass.) and washed with 1 ml phosphate buffer (pH 7.5). This technique for removing excess NEM has been previously shown to result in >90% recovery of GSSG. GSSG is then assayed by the method used above to determine total glutathione.

Compound: CN1C(C(=O)Nc2ccccn2)=C(O)c2ccccc2S1(=O)=O [piroxicam]
- gastric ulceration, in words (gastric ulceration; oral gavage, 23 mg/kg piroxicam, vs vehicle, 23 mg/kg): prominent ulceration along the ridges of gastric rugae; also recorded: consistently produced ulceration; also recorded: profound gastric ulceration
- mean ulceration in piroxicam-treated control stomachs (gastric ulceration; piroxicam 23 mg/kg p.o., absence of an intervention): 0.215 cm^2
- NADPH-dependent microsomal lipid peroxidation [1]: no effect
- total glutathione in gastric mucosa ([2]; difference vs vehicle not statistically significant): 0.33±0.03 nmoles/mg protein
- fraction of GSSG ([2]; vehicle 6.4 0.7%, not statistically significant): 8.9±0.9%

— US5036097A, “Phenylbutyl nitrone compositions and methods for prevention of gastric ulceration” (Oklahoma Medical Research Foundation, priority 1990, dated 1991)
